{"source": "patent US20250207091A1", "about": "“METHODS AND COMPOSITIONS FOR PRODUCING PRIMORDIAL GERM CELL-LIKE CELLS” (President and Fellows of Harvard College, priority 2022, published 2025)", "molecules": {"B1": {"name": "HHEX: Hematopoietically Expressed Homeobox transcription factor (SEQ ID NO: 3), overexpressed in PSCs from a doxycycline-inducible polynucleotide (protein)", "chain": "MQYPHPGPAAGAVGVPLYAPTPLLQPAHPTPFYIEDILGRGPAAPTPAPTLPSPNSSFTSLVSPYRTPVYEPTPIHPAFSHHSAAALAAAYGPGGFGGPLYPFPRTVNDYTHALLRHDPLGKPLLWSPFLQRPLHKRKGGQVRFSNDQTIELEKKFETQKYLSPPERKRLAKMLQLSERQVKTWFQNRRAKWRRLKQENPQSNKKEELESLDSSCDQRQDLPSEQNKGASLDSSQCSPSPASQEDLESEISEDSDQEVDIEGDKSYFNAG"}}, "key": {"[1]": {"system": "NANOS3-mVenus PSCs (hiPSCs)", "test": "Primordial germ cell (hPGCLC) induction via TF overexpression in hiPSCs", "type": "cell-based, human", "details": "for effect on NANOS3+ hPGCLC yield: doxycycline induction, monolayer, FIG. 1B", "excerpt": "FIGS. 1A-1B show identification of overexpressed transcription factors (TFs) that drive enhancement of NANOS3+ primordial germ cell yield.\nA method was designed for high yield germ cell formation from stem cells in monolayer culture conditions, which is described in more detail below and in FIG. 4 with a culture media composition described in Table 1. The TFs DLX5, HHEX, or FIGLA or all three together, were integrated to iPSCs via piggyBac or lentivirus and a purified pool was selected through antibiotic addition. For germ cell induction, 2,500 TF-containing iPSCs per cm^2 were seeded in mTeSR™ medium on Corning® Matrigel® Matrix for six hours. After about 12-18 hours, Media #1 was removed and the cells were again washed, and Media #2 was added. The cells were then grown for about 24 hours, after which Media #2 was replaced by Media #3. The cells were again grown for about 24 hours, after which Media #3 was replaced by Media #4. Finally, the cells were again grown for about 24 hours, at which point primordial germ cells was harvested and isolated via FACS.\nExpression plasmids containing TF cDNAs under the control of a doxycycline-inducible promoter were integrated into iPSCs using PiggyBac transposase. To perform the integration, ˜50-100 fmol of TF cDNA plasmid, ˜150-250 ng PiggyBac transposase expression plasmid, and ˜100,000-200,000 iPSCs were combined in Lonza P3 buffer and electroporated using a Lonza Nucleofector 4D. After electroporation, cells were seeded in 24-well plates in mTeSR™ Plus Medium+˜8-12 μM Y-27632. Selection with the appropriate agent (typically puromycin) commenced 48 hours after electroporation and continued for ˜3-5 days. Cells were then passaged without drug selectin for ˜3 days to allow for non-integrated plasmid loss. Finally, cells were again passaged under drug selection to generate a pure, selected integrant pool. Presence and approximate copy number of integrated TF plasmids was confirmed by qPCR on genomic DNA. For oogonia, pools of hiPSCs were utilized, not single cell selected clones. Average copy number was 8-10.\nhiPSCs containing integrated TF expression plasmids were cultured in mTeSR 1 medium on Matrigel. For induction in monolayer, hiPSCs are disassociated to single cells using Accutase and seeded on Matrigel or vitronectin XF coated plates at a density of 2,500-3,000 cells per cm^2 in mTeSR™ media+˜8-10 μM Y-27632 and ˜0.5-3 μg/ml doxycycline for about 6 hours. Media was then removed and washed with dPBS and replaced with aRB27 media #1 (see components list in detailed protocol). After about 12-18 hours of induction, media #1 is removed and washed with dPBS and replaced by media #2. After about 24 hours, media #2 is removed and replaced by media #3. […]"}, "[2]": {"biological_target": "VEGFR2 (Homo sapiens, UniProt P35968)", "sequence (P35968 20-1356, species assumed)": "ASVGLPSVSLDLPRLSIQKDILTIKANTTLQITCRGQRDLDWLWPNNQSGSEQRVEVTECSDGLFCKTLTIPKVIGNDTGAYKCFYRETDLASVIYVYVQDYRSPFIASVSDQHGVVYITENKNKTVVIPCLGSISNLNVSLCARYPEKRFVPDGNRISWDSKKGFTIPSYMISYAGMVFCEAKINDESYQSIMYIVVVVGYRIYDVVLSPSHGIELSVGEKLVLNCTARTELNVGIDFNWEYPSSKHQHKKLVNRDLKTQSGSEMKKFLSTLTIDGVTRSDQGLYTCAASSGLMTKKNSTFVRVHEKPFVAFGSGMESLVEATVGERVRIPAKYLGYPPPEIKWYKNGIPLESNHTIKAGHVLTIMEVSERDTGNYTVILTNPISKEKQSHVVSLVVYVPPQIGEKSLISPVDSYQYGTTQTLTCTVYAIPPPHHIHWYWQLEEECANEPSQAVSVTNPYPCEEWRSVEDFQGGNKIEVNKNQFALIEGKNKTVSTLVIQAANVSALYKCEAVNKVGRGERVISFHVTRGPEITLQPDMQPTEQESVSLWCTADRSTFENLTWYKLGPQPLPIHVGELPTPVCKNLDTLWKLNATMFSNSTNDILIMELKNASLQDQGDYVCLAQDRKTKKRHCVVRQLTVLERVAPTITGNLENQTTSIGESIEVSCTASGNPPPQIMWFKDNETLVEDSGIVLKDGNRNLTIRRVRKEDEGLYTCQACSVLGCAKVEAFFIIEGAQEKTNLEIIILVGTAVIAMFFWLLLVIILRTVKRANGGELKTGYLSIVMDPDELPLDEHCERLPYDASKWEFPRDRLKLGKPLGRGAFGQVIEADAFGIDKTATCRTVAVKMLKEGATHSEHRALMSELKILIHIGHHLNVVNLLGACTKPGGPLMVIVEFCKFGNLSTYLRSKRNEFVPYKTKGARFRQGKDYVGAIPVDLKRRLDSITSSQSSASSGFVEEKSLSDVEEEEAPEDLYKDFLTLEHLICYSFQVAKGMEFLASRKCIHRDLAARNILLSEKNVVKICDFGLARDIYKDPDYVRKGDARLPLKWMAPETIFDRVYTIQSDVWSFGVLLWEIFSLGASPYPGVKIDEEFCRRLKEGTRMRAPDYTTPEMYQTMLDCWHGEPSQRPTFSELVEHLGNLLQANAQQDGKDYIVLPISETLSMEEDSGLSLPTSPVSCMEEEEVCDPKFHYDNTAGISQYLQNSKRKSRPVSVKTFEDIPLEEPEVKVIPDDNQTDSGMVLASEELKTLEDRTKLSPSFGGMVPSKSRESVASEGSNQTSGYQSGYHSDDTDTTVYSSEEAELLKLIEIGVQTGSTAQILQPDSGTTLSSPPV", "details": "cited from earlier work"}, "[3]": {"system": "PDGFR", "details": "cited from earlier work"}, "[4]": {"biological_target": "c-Src (Homo sapiens, UniProt P12931)", "sequence (P12931 whole entry, species assumed)": "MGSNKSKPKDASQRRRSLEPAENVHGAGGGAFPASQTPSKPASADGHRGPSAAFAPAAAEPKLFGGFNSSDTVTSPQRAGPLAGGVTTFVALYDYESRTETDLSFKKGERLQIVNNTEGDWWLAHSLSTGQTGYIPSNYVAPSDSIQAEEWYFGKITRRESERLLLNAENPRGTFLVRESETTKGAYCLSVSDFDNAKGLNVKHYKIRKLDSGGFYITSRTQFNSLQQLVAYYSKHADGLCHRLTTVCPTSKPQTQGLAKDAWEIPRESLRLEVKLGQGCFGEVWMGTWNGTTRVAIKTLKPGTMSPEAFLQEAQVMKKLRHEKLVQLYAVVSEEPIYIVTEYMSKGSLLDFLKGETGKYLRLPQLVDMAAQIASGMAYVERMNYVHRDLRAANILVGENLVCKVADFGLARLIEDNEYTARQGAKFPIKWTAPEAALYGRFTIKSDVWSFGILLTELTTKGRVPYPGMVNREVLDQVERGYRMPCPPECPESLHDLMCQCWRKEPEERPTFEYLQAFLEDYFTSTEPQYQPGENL", "details": "cited from earlier work"}, "[5]": {"system": "MEK", "details": "cited from earlier work"}, "[6]": {"system": "PKC", "details": "cited from earlier work"}, "[7]": {"system": "SW480 cells", "details": "Huang et al.; cited from earlier work"}}, "data": [{"molecule": "DLX5: Distal-Less Homeobox 5 transcription factor (SEQ ID NO: 2), overexpressed in PSCs from a doxycycline-inducible polynucleotide", "values": [{"measurement": "germ cell formation rescue compared to wildtype", "setting": "[1]; absence of BMP4", "value": 50, "unit": "%"}, {"measurement": "effect on NANOS3+ hPGCLC yield", "setting": "[1]", "value": "enhanced"}, {"measurement": "activity (hPGCLC yield) retained without hBMP4", "setting": "[1]; without hBMP4, compared to normal condition, FIG. 3A", "value": 40, "unit": "%"}]}, {"molecule": "FIGLA: Folliculogenesis Specific BHLH Transcription Factor (SEQ ID NO: 1), overexpressed in PSCs from a doxycycline-inducible polynucleotide", "values": [{"measurement": "effect on NANOS3+ hPGCLC yield", "setting": "[1]", "value": "enhanced"}]}, {"molecule": "CCN(CC)CCCCNc1ncc2cc(-c3cc(OC)cc(OC)c3)c(NC(=O)NC(C)(C)C)nc2n1", "note": "[PD 173074]", "values": [{"measurement": "IC50", "setting": "[2]", "value": "~0.1", "unit": "µM"}, {"measurement": "IC50", "setting": "[3]", "value": "~17.6", "unit": "µM"}, {"measurement": "IC50", "setting": "[4]", "value": "~19.8", "unit": "µM"}, {"measurement": "IC50", "setting": "[5]", "value": "> 50", "unit": "µM"}, {"measurement": "IC50", "setting": "[6]", "value": "> 50", "unit": "µM"}]}, {"molecule": "Oc1nc(-c2ccc(C(F)(F)F)cc2)nc2c1CSCC2", "note": "[XAV939]", "values": [{"measurement": "effect on β-catenin", "setting": "[7]", "value": "promotes the degradation of β-catenin"}]}, {"molecule": "B1", "values": [{"measurement": "effect on NANOS3+ hPGCLC yield", "setting": "[1]", "value": "enhanced"}]}]}
